Assay results published in ChEMBL document CHEMBL5352419, “Design, synthesis, and biological evaluation of tetrahydroquinoline amphiphiles as membrane-targeting antimicrobials against pathogenic bacteria and fungi” (Eur J Med Chem, 2022).
Values after ≈ are worked out from the molar mass of the structure shown.

Columns and labels:
[1] = Hemolytic activity in rabbit RBC incubated for 1 hr by absorbance based microplate reader assay; type: toxicity, cell-based, Oryctolagus cuniculus, Erythrocyte; details: rabbit red blood cells (erythrocytes)
Staphylococcus aureus [2] = experiment: Antimicrobial activity against Staphylococcus aureus ATCC29213 assessed as bacterial growth inhibition incubated for 24 hrs by Muller Hinton broth based dilution assay; type: functional
Staphylococcus aureus [3] = experiment: Antimicrobial activity against methicillin-resistant Staphylococcus aureus NCTC10442 assessed as bacterial growth inhibition incubated for 24 hrs by Muller Hinton broth based dilution assay; type: functional
Escherichia coli = experiment: Antimicrobial activity against Escherichia coli ATCC25922 assessed as bacterial growth inhibition incubated for 24 hrs by Muller Hinton broth based dilution assay; type: functional
Staphylococcus aureus [4] = experiment: Antimicrobial activity against methicillin-resistant Staphylococcus aureus N315 assessed as bacterial growth inhibition incubated for 24 hrs by Muller Hinton broth based dilution assay; type: functional
Candida albicans [5] = experiment: Antimicrobial activity against Candida albicans ATCC10231 assessed as fungal growth inhibition incubated for 48 hrs by Sabouraud Dextrose broth based dilution assay; type: functional
Candida albicans [6] = experiment: Antimicrobial activity against Candida albicans CMCC98001 assessed as fungal growth inhibition incubated for 48 hrs by Sabouraud Dextrose broth based dilution assay; type: functional

Question: With `CC(C)=CCC/C(C)=C/CN1CCCc2cc(OCCCCBr)ccc21` as the compound, how does the HC50 at 1 h [1] read?
Answer: > 200 µg/mL

Question: What about the MIC (Staphylococcus aureus [2]) of the same compound?
Answer: 25 µg/mL (≈ 59.5 µM)

Question: And the MIC (Staphylococcus aureus [3])?
Answer: 25 µg/mL (≈ 59.5 µM)

Question: And the MIC (Escherichia coli)?
Answer: > 50 µg/mL

Question: And the MIC (Staphylococcus aureus [4])?
Answer: 25 µg/mL (≈ 59.5 µM)

Question: What about the MIC (Candida albicans [5]) of the same compound?
Answer: > 50 µg/mL

Question: And the MIC (Candida albicans [6])?
Answer: 50 µg/mL (≈ 119 µM)

Question: What does the source list for `CC(C)=CCN1CCCc2cc(OCCCCCCBr)ccc21`?
Answer: HC50 at 1 h [1]: > 200 µg/mL; MIC (Staphylococcus aureus [2]): 50 µg/mL (≈ 131 µM); MIC (Staphylococcus aureus [3]): 25 µg/mL (≈ 65.7 µM); MIC (Escherichia coli): > 50 µg/mL; MIC (Staphylococcus aureus [4]): 25 µg/mL (≈ 65.7 µM); MIC (Candida albicans [5]): 50 µg/mL (≈ 131 µM); MIC (Candida albicans [6]): 50 µg/mL (≈ 131 µM)

Question: With `CC(C)=CCC/C(C)=C/CN1CCCc2cc(OCCCCCCCCBr)ccc21` as the compound, how does the HC50 at 1 h [1] read?
Answer: > 200 µg/mL

Question: What about the MIC (Staphylococcus aureus [2]) of the same compound?
Answer: 6.25 µg/mL (≈ 13.1 µM)

Question: And the MIC (Staphylococcus aureus [3])?
Answer: 6.25 µg/mL (≈ 13.1 µM)

Question: And the MIC (Escherichia coli)?
Answer: 25 µg/mL (≈ 52.5 µM)

Question: What about the MIC (Staphylococcus aureus [4]) of the same compound?
Answer: 6.25 µg/mL (≈ 13.1 µM)

Question: And the MIC (Candida albicans [5])?
Answer: 12.5 µg/mL (≈ 26.2 µM)

Question: And the MIC (Candida albicans [6])?
Answer: 12.5 µg/mL (≈ 26.2 µM)

Question: What does the source list for `CC(C)=CCC/C(C)=C/CN1CCCc2cc(O)ccc21`?
Answer: HC50 at 1 h [1]: > 200 µg/mL; MIC (Staphylococcus aureus [2]): 12.5 µg/mL (≈ 43.8 µM); MIC (Staphylococcus aureus [3]): 12.5 µg/mL (≈ 43.8 µM); MIC (Escherichia coli): > 50 µg/mL; MIC (Staphylococcus aureus [4]): 12.5 µg/mL (≈ 43.8 µM); MIC (Candida albicans [5]): 50 µg/mL (≈ 175 µM); MIC (Candida albicans [6]): 25 µg/mL (≈ 87.6 µM)

Question: With `FC(F)(F)CCCN1CCCc2cc(OCCCCBr)ccc21` as the compound, how does the HC50 at 1 h [1] read?
Answer: > 200 µg/mL

Question: And the MIC (Staphylococcus aureus [2])?
Answer: 25 µg/mL (≈ 63.4 µM)

Question: And the MIC (Staphylococcus aureus [3])?
Answer: 12.5 µg/mL (≈ 31.7 µM)

Question: And the MIC (Escherichia coli)?
Answer: > 50 µg/mL

Question: And the MIC (Staphylococcus aureus [4])?
Answer: 25 µg/mL (≈ 63.4 µM)

Question: And the MIC (Candida albicans [5])?
Answer: > 50 µg/mL

Question: What about the MIC (Candida albicans [6]) of the same compound?
Answer: > 50 µg/mL

Question: Which HC50 at 1 h [1] does the source give for `CCCCCN1CCCc2cc(O)ccc21` here?
Answer: > 200 µg/mL

Question: And the MIC (Staphylococcus aureus [2])?
Answer: 50 µg/mL (≈ 228 µM)

Question: What about the MIC (Staphylococcus aureus [3]) of the same compound?
Answer: 25 µg/mL (≈ 114 µM)

Question: What about the MIC (Escherichia coli) of the same compound?
Answer: > 50 µg/mL

Question: And the MIC (Staphylococcus aureus [4])?
Answer: 25 µg/mL (≈ 114 µM)

Question: And the MIC (Candida albicans [5])?
Answer: > 50 µg/mL

Question: What about the MIC (Candida albicans [6]) of the same compound?
Answer: > 50 µg/mL

Question: Which HC50 at 1 h [1] does the source give for `CC(C)=CCC/C(C)=C/CN1CCCc2cc(OCCCCCCCCNC(=N)N)ccc21` here?
Answer: > 200 µg/mL

Question: What about the MIC (Staphylococcus aureus [2]) of the same compound?
Answer: 3.12 µg/mL (≈ 6.87 µM)

Question: What about the MIC (Staphylococcus aureus [3]) of the same compound?
Answer: 1.56 µg/mL (≈ 3.43 µM)

Question: And the MIC (Escherichia coli)?
Answer: 25 µg/mL (≈ 55 µM)

Question: And the MIC (Staphylococcus aureus [4])?
Answer: 3.12 µg/mL (≈ 6.87 µM)

Question: And the MIC (Candida albicans [5])?
Answer: 0.78 µg/mL (≈ 1.72 µM)

Question: And the MIC (Candida albicans [6])?
Answer: 0.78 µg/mL (≈ 1.72 µM)

Question: Which HC50 at 1 h [1] does the source give for `CC(C)=CCN1CCCc2cc(OCCCCNCCN(CCN)CCN)ccc21` here?
Answer: > 200 µg/mL

Question: And the MIC (Staphylococcus aureus [2])?
Answer: 12.5 µg/mL (≈ 29.9 µM)

Question: And the MIC (Staphylococcus aureus [3])?
Answer: 6.25 µg/mL (≈ 15 µM)

Question: And the MIC (Escherichia coli)?
Answer: 50 µg/mL (≈ 120 µM)

Question: What about the MIC (Staphylococcus aureus [4]) of the same compound?
Answer: 6.25 µg/mL (≈ 15 µM)

Question: And the MIC (Candida albicans [5])?
Answer: > 50 µg/mL

Question: And the MIC (Candida albicans [6])?
Answer: 50 µg/mL (≈ 120 µM)

Question: Which HC50 at 1 h [1] does the source give for `CC(C)=CCN1CCCc2cc(OCCCCN3CCCC3)ccc21` here?
Answer: > 200 µg/mL

Question: What about the MIC (Staphylococcus aureus [2]) of the same compound?
Answer: > 50 µg/mL

Question: And the MIC (Staphylococcus aureus [3])?
Answer: > 50 µg/mL

Question: What about the MIC (Escherichia coli) of the same compound?
Answer: > 50 µg/mL

Question: And the MIC (Staphylococcus aureus [4])?
Answer: > 50 µg/mL

Question: What about the MIC (Candida albicans [5]) of the same compound?
Answer: > 50 µg/mL

Question: And the MIC (Candida albicans [6])?
Answer: > 50 µg/mL

Question: Which HC50 at 1 h [1] does the source give for `N=C(N)NCCCCOc1ccc2c(c1)CCCN2CCCC(F)(F)F` here?
Answer: > 200 µg/mL

Question: What about the MIC (Staphylococcus aureus [2]) of the same compound?
Answer: 6.25 µg/mL (≈ 16.8 µM)

Question: And the MIC (Staphylococcus aureus [3])?
Answer: 6.25 µg/mL (≈ 16.8 µM)

Question: And the MIC (Escherichia coli)?
Answer: 25 µg/mL (≈ 67.1 µM)

Question: And the MIC (Staphylococcus aureus [4])?
Answer: 6.25 µg/mL (≈ 16.8 µM)

Question: And the MIC (Candida albicans [5])?
Answer: > 50 µg/mL

Question: What about the MIC (Candida albicans [6]) of the same compound?
Answer: > 50 µg/mL

Question: For `CC(C)=CCN1CCCc2cc(OCCCCN(C)C)ccc21`, which HC50 at 1 h [1] is on record?
Answer: > 200 µg/mL

Question: What about the MIC (Staphylococcus aureus [2]) of the same compound?
Answer: 25 µg/mL (≈ 79 µM)

Question: And the MIC (Staphylococcus aureus [3])?
Answer: 25 µg/mL (≈ 79 µM)

Question: And the MIC (Escherichia coli)?
Answer: 25 µg/mL (≈ 79 µM)

Question: What about the MIC (Staphylococcus aureus [4]) of the same compound?
Answer: 25 µg/mL (≈ 79 µM)

Question: And the MIC (Candida albicans [5])?
Answer: > 50 µg/mL

Question: What about the MIC (Candida albicans [6]) of the same compound?
Answer: > 50 µg/mL

Question: What does the source list for `CCCCCCCCCN1CCCc2cc(O)ccc21`?
Answer: HC50 at 1 h [1]: > 200 µg/mL; MIC (Staphylococcus aureus [2]): 12.5 µg/mL (≈ 45.4 µM); MIC (Staphylococcus aureus [3]): 12.5 µg/mL (≈ 45.4 µM); MIC (Escherichia coli): > 50 µg/mL; MIC (Staphylococcus aureus [4]): 12.5 µg/mL (≈ 45.4 µM); MIC (Candida albicans [5]): 50 µg/mL (≈ 182 µM); MIC (Candida albicans [6]): 50 µg/mL (≈ 182 µM)

Question: Which results are given for `CCCN1CCCc2cc(O)ccc21`?
Answer: HC50 at 1 h [1]: > 200 µg/mL; MIC (Staphylococcus aureus [2]): > 50 µg/mL; MIC (Staphylococcus aureus [3]): > 50 µg/mL; MIC (Escherichia coli): > 50 µg/mL; MIC (Staphylococcus aureus [4]): > 50 µg/mL; MIC (Candida albicans [5]): > 50 µg/mL; MIC (Candida albicans [6]): > 50 µg/mL

Question: With `Oc1ccc2c(c1)CCCN2CCCC(F)(F)F` as the compound, how does the HC50 at 1 h [1] read?
Answer: > 200 µg/mL

Question: And the MIC (Staphylococcus aureus [2])?
Answer: > 50 µg/mL

Question: And the MIC (Staphylococcus aureus [3])?
Answer: > 50 µg/mL

Question: And the MIC (Escherichia coli)?
Answer: > 50 µg/mL

Question: And the MIC (Staphylococcus aureus [4])?
Answer: > 50 µg/mL

Question: What about the MIC (Candida albicans [5]) of the same compound?
Answer: > 50 µg/mL

Question: And the MIC (Candida albicans [6])?
Answer: > 50 µg/mL

Question: With `CCCCN1CCCc2cc(OCCCCBr)ccc21` as the compound, how does the HC50 at 1 h [1] read?
Answer: > 200 µg/mL

Question: What about the MIC (Staphylococcus aureus [2]) of the same compound?
Answer: 12.5 µg/mL (≈ 36.7 µM)

Question: And the MIC (Staphylococcus aureus [3])?
Answer: 6.25 µg/mL (≈ 18.4 µM)

Question: What about the MIC (Escherichia coli) of the same compound?
Answer: 50 µg/mL (≈ 147 µM)

Question: What about the MIC (Staphylococcus aureus [4]) of the same compound?
Answer: 6.25 µg/mL (≈ 18.4 µM)

Question: And the MIC (Candida albicans [5])?
Answer: > 50 µg/mL

Question: And the MIC (Candida albicans [6])?
Answer: 50 µg/mL (≈ 147 µM)

Question: What does the source list for `CCCCCCCN1CCCc2cc(OCC(=O)OCC)ccc21`?
Answer: HC50 at 1 h [1]: > 200 µg/mL; MIC (Staphylococcus aureus [2]): > 50 µg/mL; MIC (Staphylococcus aureus [3]): > 50 µg/mL; MIC (Escherichia coli): > 50 µg/mL; MIC (Staphylococcus aureus [4]): > 50 µg/mL; MIC (Candida albicans [5]): > 50 µg/mL; MIC (Candida albicans [6]): > 50 µg/mL
